Results taken from ChEMBL document CHEMBL5260845, “Flavone-based arylamides as potential anticancers: Design, synthesis and in vitro cell-based/cell-free evaluations” (2020).
Calls of active or inactive are those of the source. The calls are words filed in the database; no cut-off is given here.

How the values were obtained:
[1] = system: Renal cancer cell line; assay: Antiproliferative activity against human renal cancer cells assessed as cell growth inhibition at 10 uM by SRB assay relative to control; type: functional
[2] = system: Malme-3M; assay: Antiproliferative activity against human Malme-3M cells assessed as cell growth inhibition at 10 uM by SRB assay relative to control; type: functional
[3] = system: RPMI-8226; assay: Antiproliferative activity against human RPMI-8226 cells assessed as cell growth inhibition by SRB assay; type: functional
[4] = system: RXF 393; assay: Antiproliferative activity against human RXF 393 cells assessed as inhibition of cell growth at 10 uM by SRB assay relative to control; type: functional
[5] = system: HCC 2998; assay: Antiproliferative activity against human HCC 2998 cells assessed as cell growth inhibition at 10 uM by SRB assay relative to control; type: functional
[6] = system: SF-295; assay: Antiproliferative activity against human SF-295 cells assessed as cell growth inhibition at 10 uM by SRB assay relative to control; type: functional
[7] = system: TK-10; assay: Antiproliferative activity against human TK-10 cells assessed as inhibition of cell growth at 10 uM by SRB assay relative to control; type: functional
[8] = system: K562; assay: Antiproliferative activity against human K562 cells assessed as cell growth inhibition at 10 uM by SRB assay; type: functional, cell-based
[9] = system: A549; assay: Antiproliferative activity against human A549 cells assessed as cell growth inhibition at 10 uM by SRB assay; type: functional, cell-based
[10] = system: HOP-92; assay: Antiproliferative activity against human HOP-92 cells assessed as cell growth inhibition at 10 uM by SRB assay; type: functional, cell-based
[11] = system: SN12C; assay: Antiproliferative activity against human SN12C cells assessed as inhibition of cell growth at 10 uM by SRB assay relative to control; type: functional
[12] = target: Serine/threonine-protein kinase PLK2 (Homo sapiens) (UniProt Q9NYY3); assay: Inhibition of PLK2 (unknown origin) at 10 uM by biochemical hotspot kinase assay relative to control
[13] = target: RAC-alpha serine/threonine-protein kinase (Homo sapiens) (UniProt P31749); assay: Inhibition of AKT1 (unknown origin) at 10 uM by biochemical hotspot kinase assay relative to control
[14] = target: cAMP-dependent protein kinase (PKA) (Homo sapiens) (UniProt P22694+P17612+P22612); assay: Inhibition of PKA (unknown origin) at 10 uM by biochemical hotspot kinase assay; type: protein assay
[15] = target: High affinity nerve growth factor receptor (Homo sapiens) (UniProt P04629); assay: Inhibition of TrkA (unknown origin) at 10 uM by biochemical hotspot kinase assay
[16] = target: Mitogen-activated protein kinase 1 (Homo sapiens) (UniProt P28482); assay: Inhibition of ERK2 (unknown origin) at 10 uM by biochemical hotspot kinase assay relative to control
[17] = target: CDK1/Cyclin E (Homo sapiens) (UniProt P06493+P24864); assay: Inhibition of CDK1/cyclin E (unknown origin) at 10 uM by biochemical hotspot kinase assay; type: protein-complex assay
[18] = target: Receptor-interacting serine/threonine-protein kinase 2 (Homo sapiens) (UniProt O43353); assay: Inhibition of RIPK2 (unknown origin) at 10 uM by biochemical hotspot kinase assay relative to control
[19] = target: Vascular endothelial growth factor receptor 3 (Homo sapiens) (UniProt P35916); assay: Inhibition of VEGFR3 (unknown origin) at 10 uM by biochemical hotspot kinase assay relative to control
[20] = system: OVCAR-5; assay: Antiproliferative activity against human OVCAR-5 cells assessed as inhibition of cell growth at 10 uM by SRB assay relative to control; type: functional
[21] = target: Serine/threonine-protein kinase ICK (Homo sapiens) (UniProt Q9UPZ9); assay: Inhibition of LCK2 (unknown origin) at 10 uM by biochemical hotspot kinase assay
[22] = system: HT-29; assay: Induction of cell cycle arrest in human HT-29 cells assessed as accumulation of cells at G1 phase at 2.5 uM incubated for 24 hrs by PI staining based analysis (reference value: 40.3%); type: functional
[23] = system: HT-29; assay: Antiproliferative activity against human HT-29 cells assessed as cell growth inhibition by SRB assay; type: functional
[24] = target: Mitogen-activated protein kinase kinase kinase 8 (Homo sapiens) (UniProt P41279); assay: Inhibition of MAP3K8 (unknown origin) at 10 uM by biochemical hotspot kinase assay relative to control
[25] = target: Tyrosine-protein kinase SYK (Homo sapiens) (UniProt P43405); assay: Inhibition of SYK (unknown origin) at 10 uM by biochemical hotspot kinase assay relative to control
[26] = target: Mitogen-activated protein kinase kinase kinase 14 (Homo sapiens) (UniProt Q99558); assay: Inhibition of MAP3K14 (unknown origin) at 10 uM by biochemical hotspot kinase assay relative to control
[27] = target: Aurora kinase A (Homo sapiens) (UniProt O14965); assay: Inhibition of Aurora A (unknown origin) at 10 uM by biochemical hotspot kinase assay
[28] = target: Receptor tyrosine-protein kinase erbB-4 (Homo sapiens) (UniProt Q15303); assay: Inhibition of ERBB4 (unknown origin) at 10 uM by biochemical hotspot kinase assay relative to control
[29] = target: Epidermal growth factor receptor (Homo sapiens) (UniProt P00533); assay: Inhibition of EGFR (unknown origin) at 10 uM by biochemical hotspot kinase assay
[30] = target: Hepatocyte growth factor receptor (Homo sapiens) (UniProt P08581); assay: Inhibition of c-MET (unknown origin) at 10 uM by biochemical hotspot kinase assay relative to control
[31] = system: HT-29; assay: Induction of cell cycle arrest in human HT-29 cells assessed as accumulation of cells at G1 phase at 10 uM incubated for 24 hrs by PI staining based analysis (reference value: 40.3%); type: functional
[32] = target: Fibroblast growth factor receptor 3 (Homo sapiens) (UniProt P22607); assay: Inhibition of FGFR3 (unknown origin) at 10 uM by biochemical hotspot kinase assay relative to control
[33] = target: Vascular endothelial growth factor receptor 2 (Homo sapiens) (UniProt P35968); assay: Inhibition of VEGFR2 (unknown origin) at 10 uM by biochemical hotspot kinase assay
[34] = target: Mitogen-activated protein kinase 15 (Homo sapiens) (UniProt Q8TD08); assay: Inhibition of ERK7 (unknown origin) at 10 uM by biochemical hotspot kinase assay
[35] = target: Tyrosine-protein kinase Lyn (Homo sapiens) (UniProt P07948); assay: Inhibition of LYN (unknown origin) at 10 uM by biochemical hotspot kinase assay
[36] = target: Serine/threonine-protein kinase Chk2 (Homo sapiens) (UniProt O96017); assay: Inhibition of CHK2 (unknown origin) at 10 uM by biochemical hotspot kinase assay relative to control
[37] = target: Rho-associated protein kinase 1 (Homo sapiens) (UniProt Q13464); assay: Inhibition of ROCK1 (unknown origin) at 10 uM by biochemical hotspot kinase assay
[38] = target: Calcium/calmodulin-dependent protein kinase type II subunit beta (Homo sapiens) (UniProt Q13554); assay: Inhibition of CAMK2B (unknown origin) at 10 uM by biochemical hotspot kinase assay relative to control
Chain of Calcium/calmodulin-dependent protein kinase type II subunit beta (Homo sapiens) (Q13554 whole entry): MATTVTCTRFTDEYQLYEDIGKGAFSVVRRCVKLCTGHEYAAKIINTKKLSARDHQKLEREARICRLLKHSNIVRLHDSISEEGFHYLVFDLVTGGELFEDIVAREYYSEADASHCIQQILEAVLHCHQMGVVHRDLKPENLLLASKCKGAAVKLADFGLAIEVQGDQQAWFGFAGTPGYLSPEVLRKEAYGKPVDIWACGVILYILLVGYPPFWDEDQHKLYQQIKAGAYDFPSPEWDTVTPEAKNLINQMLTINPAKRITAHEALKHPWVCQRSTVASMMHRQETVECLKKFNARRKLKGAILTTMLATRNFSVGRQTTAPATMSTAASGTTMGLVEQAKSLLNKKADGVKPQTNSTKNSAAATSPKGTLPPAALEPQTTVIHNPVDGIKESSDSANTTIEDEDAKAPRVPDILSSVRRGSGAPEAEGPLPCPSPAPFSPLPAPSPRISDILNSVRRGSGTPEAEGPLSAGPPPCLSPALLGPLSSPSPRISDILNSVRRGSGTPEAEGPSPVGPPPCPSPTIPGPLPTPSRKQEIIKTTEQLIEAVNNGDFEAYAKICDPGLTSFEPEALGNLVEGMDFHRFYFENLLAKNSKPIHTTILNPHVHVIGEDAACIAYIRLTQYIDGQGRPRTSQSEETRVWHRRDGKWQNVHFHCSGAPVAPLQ

Chain of Tyrosine-protein kinase Lyn (Homo sapiens) (P07948 2-512 limits assumed): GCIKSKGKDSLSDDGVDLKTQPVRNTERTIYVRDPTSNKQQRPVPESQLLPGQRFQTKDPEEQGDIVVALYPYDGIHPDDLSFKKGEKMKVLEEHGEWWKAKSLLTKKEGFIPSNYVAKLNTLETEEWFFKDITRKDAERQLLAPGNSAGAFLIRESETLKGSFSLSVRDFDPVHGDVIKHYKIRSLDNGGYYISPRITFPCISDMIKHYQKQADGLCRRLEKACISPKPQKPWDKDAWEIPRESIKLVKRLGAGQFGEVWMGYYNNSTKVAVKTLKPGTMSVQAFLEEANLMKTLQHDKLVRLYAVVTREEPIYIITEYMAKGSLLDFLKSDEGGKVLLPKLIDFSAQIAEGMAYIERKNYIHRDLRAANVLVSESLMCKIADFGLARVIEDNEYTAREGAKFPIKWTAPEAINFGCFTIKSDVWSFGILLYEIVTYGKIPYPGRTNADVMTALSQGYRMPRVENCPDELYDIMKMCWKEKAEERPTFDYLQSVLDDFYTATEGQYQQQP
Chain of Fibroblast growth factor receptor 3 (Homo sapiens) (P22607 23-806 limits assumed): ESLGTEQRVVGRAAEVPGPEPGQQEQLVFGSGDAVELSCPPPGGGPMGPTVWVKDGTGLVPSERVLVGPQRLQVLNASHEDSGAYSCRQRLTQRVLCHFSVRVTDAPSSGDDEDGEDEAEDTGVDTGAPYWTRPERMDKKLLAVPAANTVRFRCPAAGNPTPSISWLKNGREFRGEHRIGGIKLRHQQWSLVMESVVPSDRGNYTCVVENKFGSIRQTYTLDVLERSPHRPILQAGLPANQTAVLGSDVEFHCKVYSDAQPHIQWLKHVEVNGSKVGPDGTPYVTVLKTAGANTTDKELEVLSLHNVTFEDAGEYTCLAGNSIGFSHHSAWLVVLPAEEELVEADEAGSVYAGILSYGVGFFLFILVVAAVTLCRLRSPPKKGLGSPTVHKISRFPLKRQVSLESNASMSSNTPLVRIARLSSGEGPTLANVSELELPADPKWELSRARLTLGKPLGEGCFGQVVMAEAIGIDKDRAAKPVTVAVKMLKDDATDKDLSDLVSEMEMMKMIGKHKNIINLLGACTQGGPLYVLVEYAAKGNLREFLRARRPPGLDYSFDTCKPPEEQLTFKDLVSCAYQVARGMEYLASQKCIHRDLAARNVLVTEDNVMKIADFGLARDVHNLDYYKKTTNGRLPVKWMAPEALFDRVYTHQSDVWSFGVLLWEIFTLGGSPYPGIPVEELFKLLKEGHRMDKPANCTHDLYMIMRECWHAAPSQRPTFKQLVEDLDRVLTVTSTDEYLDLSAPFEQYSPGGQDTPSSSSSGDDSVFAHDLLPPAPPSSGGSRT
Chain of Serine/threonine-protein kinase ICK (Homo sapiens) (Q9UPZ9 whole entry): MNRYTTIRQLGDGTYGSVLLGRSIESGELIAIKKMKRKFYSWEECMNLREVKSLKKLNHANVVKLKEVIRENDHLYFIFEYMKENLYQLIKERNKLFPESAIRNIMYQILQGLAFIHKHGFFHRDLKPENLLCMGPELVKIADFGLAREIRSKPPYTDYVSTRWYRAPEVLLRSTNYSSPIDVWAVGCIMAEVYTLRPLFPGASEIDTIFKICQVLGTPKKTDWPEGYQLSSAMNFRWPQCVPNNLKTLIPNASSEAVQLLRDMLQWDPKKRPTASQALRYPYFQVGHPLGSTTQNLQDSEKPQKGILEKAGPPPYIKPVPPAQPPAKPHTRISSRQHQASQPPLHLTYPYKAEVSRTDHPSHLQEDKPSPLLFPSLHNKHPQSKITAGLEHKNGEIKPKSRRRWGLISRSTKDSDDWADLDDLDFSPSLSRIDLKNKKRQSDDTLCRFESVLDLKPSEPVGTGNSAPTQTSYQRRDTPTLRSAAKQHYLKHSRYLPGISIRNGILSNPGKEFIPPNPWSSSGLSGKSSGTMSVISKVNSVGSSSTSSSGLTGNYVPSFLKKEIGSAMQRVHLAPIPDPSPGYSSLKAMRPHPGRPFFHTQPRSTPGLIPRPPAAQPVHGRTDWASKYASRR
Chain of Rho-associated protein kinase 1 (Homo sapiens) (Q13464 2-1354 limits assumed): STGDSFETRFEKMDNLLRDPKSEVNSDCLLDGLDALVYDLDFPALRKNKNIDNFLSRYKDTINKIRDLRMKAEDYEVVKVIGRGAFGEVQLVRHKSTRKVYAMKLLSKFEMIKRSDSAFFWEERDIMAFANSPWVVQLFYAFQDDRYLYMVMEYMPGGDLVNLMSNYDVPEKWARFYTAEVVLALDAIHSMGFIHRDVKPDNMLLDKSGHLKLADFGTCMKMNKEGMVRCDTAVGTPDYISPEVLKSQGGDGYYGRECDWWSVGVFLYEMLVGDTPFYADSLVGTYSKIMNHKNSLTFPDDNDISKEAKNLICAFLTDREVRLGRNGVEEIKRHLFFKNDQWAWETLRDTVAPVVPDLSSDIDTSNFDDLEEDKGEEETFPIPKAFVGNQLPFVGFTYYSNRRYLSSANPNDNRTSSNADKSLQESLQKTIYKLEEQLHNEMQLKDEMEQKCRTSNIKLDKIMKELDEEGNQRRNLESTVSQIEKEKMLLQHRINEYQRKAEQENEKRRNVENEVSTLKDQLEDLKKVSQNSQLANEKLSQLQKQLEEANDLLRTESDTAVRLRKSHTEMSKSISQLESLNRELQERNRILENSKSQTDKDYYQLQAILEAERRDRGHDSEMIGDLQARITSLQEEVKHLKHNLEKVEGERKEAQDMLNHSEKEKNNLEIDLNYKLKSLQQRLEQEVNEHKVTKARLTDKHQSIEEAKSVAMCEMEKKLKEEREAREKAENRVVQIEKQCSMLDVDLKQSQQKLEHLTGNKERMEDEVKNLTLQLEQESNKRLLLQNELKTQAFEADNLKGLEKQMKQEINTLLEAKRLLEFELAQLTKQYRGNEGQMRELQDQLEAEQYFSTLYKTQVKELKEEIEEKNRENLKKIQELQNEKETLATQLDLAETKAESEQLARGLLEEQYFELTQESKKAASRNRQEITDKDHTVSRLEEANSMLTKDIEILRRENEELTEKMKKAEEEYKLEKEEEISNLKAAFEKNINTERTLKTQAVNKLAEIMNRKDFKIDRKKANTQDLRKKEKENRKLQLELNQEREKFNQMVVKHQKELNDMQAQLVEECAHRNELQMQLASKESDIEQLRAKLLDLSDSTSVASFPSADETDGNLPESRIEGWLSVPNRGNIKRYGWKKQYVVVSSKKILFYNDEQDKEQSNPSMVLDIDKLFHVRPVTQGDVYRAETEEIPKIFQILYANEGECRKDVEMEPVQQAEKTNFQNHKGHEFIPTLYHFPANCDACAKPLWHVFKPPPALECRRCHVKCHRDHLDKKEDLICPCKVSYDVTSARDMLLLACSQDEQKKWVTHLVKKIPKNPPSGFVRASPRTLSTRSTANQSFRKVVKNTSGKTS
Chain of Receptor-interacting serine/threonine-protein kinase 2 (Homo sapiens) (O43353 whole entry): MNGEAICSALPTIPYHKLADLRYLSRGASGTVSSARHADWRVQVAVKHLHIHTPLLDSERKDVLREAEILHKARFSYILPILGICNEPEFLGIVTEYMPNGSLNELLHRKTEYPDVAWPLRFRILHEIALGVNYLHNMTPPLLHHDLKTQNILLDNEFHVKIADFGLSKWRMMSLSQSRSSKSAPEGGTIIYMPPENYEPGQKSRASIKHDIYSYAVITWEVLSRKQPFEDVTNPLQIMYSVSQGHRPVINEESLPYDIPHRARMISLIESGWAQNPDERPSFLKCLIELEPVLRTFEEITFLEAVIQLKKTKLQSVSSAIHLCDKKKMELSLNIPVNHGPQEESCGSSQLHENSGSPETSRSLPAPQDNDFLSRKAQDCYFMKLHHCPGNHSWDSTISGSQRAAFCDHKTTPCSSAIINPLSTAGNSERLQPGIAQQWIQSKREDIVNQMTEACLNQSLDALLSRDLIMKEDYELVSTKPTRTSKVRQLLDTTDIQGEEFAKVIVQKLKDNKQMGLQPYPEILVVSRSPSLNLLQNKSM
Chain of Mitogen-activated protein kinase 1 (Homo sapiens) (P28482 whole entry): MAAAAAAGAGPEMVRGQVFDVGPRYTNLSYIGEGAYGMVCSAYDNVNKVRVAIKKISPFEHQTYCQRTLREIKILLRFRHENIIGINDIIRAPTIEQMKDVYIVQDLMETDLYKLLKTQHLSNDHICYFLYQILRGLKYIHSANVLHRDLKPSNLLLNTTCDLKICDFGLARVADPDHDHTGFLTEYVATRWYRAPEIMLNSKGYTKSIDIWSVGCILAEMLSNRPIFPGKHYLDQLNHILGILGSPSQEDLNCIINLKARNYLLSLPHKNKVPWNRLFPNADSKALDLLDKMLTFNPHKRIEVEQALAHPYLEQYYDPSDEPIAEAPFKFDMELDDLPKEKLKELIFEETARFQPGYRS

Compound `COc1cc2oc(-c3cccc(C(=O)Nc4ccc(Cl)cc4)c3)cc(=O)c2c(OC)c1OC` has an inhibition at 10 µM [1] of 82.9%, an inhibition at 10 µM [2] of 85.8% and a GI50 [3] of 490 nM. For the same compound, the inhibition at 10 µM [4] was 129%, the inhibition at 10 µM [5] was 77.4% and the inhibition at 10 µM [6] was 142%. For the same compound, the inhibition at 10 µM [7] was 61.4%, the inhibition [8] was “Active” and the inhibition [9] was “Active”. The inhibition [10] was “Active” and the inhibition at 10 µM [11] was 61.4%.
In the case of `COc1cc2oc(-c3cccc(C(=O)Nc4ccc(C)cc4)c3)cc(=O)c2c(OC)c1OC`, the inhibition at 10 µM [1] is reported as 72.5%, the inhibition [12] is reported as 10.5% and the inhibition [13] is reported as 2.36%. For the same compound, the inhibition [14] was “inactive”, the inhibition [15] was “inactive” and the inhibition at 10 µM [2] was 70.1%. The inhibition [16] was 17.2%, the GI50 [3] was 370 nM and the inhibition [4] was “Active”. The inhibition at 10 µM [5] was 50.1%, the inhibition [17] was “inactive” and the inhibition [18] was 36.1%. It also gave an inhibition [19] of 8.65%, an inhibition at 10 µM [6] of 147% and an inhibition at 10 µM [20] of 51.8%. For the same compound, the inhibition [21] was “inactive”, the inhibition [8] was “Active” and the Activity [22] was 55.4%. The GI50 [23] was 2550 nM, the inhibition [24] was 3.13% and the inhibition [25] was 1.17%. The inhibition [26] was 20.9%, the inhibition [27] was “inactive” and the inhibition [28] was 16%. For the same compound, the inhibition [9] was “Active”, the inhibition [29] was “inactive” and the inhibition [30] was 27.1%. For the same compound, the Activity [31] was 64%, the inhibition [32] was 0.26% and the inhibition [10] was “Active”. For the same compound, the inhibition at 10 µM [11] was 55.7%, the inhibition [33] was “inactive” and the inhibition [34] was “inactive”. For the same compound, the inhibition [35] was “inactive”, the inhibition [36] was 6.31% and the inhibition [37] was “inactive”. For the same compound, the inhibition [38] was 1.99%.
